In the NIST ThermoML archive (doi:10.1016/j.fluid.2006.12.011):

Assay: xn = mol fraction of the nth substance listed
Settings: Liquid, Vibrating tube method

C1CC[C@H]2CCCC[C@H]2C1 [cis-decahydronaphthalene] + C1CC[C@H]2CCCC[C@@H]2C1
mass density [kg/m3]
Settings | x1 = 0.2 | x1 = 0.35 | x1 = 0.5 | x1 = 0.65 | x1 = 0.8 | x1 = 1
303.15 K, 100 kPa | 867.4 | 871.5 | 875.5 | 879.2 | 883.4 | 888.5
303.15 K, 5000 kPa | 870.6 | 874.6 | 878.5 | 882.3 | 886.3 | 891.4
303.15 K, 10000 kPa | 873.8 | 877.7 | 881.6 | 885.3 | 889.4 | 894.4
303.15 K, 15000 kPa | 876.8 | 880.7 | 884.5 | 888.3 | 892.3 | 897.3
303.15 K, 20000 kPa | 879.7 | 883.6 | 887.5 | 891.2 | 895.2 | 899.9
303.15 K, 25000 kPa | 882.6 | 886.4 | 890.3 | 894 | 897.9 | 902.8
303.15 K, 30000 kPa | 885.3 | 889.2 | 893 | 896.7 | 900.6 | 905.5
303.15 K, 35000 kPa | 888 | 891.8 | 895.6 | 899.3 | 903.2 | 908
303.15 K, 40000 kPa | 890.7 | 894.5 | 898.2 | 901.9 | 905.7 | 910.6
303.15 K, 45000 kPa | 893.2 | 896.9 | 900.7 | 904.4 | 908.1 | 913
303.15 K, 50000 kPa | 895.6 | 899.4 | 903 | 906.7 | 910.5 | 915.3
303.15 K, 55000 kPa | 898 | 901.7 | 905.4 | 909 | 912.8 | 917.6
303.15 K, 60000 kPa | 900.3 | 904 | 907.7 | 911.3 | 915.1 | 919.9
303.15 K, 65000 kPa | 902.6 | 906.3 | 909.9 | 913.6 | 917.3 | 922.1
323.15 K, 100 kPa | 852.1 | 856.3 | 860.2 | 864.2 | 868.1 | 873.2
323.15 K, 5000 kPa | 855.9 | 859.9 | 863.7 | 867.6 | 871.6 | 876.5
323.15 K, 10000 kPa | 859.4 | 863.3 | 867.1 | 870.9 | 874.9 | 879.8
323.15 K, 15000 kPa | 862.7 | 866.6 | 870.4 | 874.2 | 878.1 | 883
323.15 K, 20000 kPa | 865.9 | 869.8 | 873.5 | 877.3 | 881.2 | 886
323.15 K, 25000 kPa | 869 | 872.9 | 876.5 | 880.3 | 884.2 | 889
323.15 K, 30000 kPa | 872 | 875.8 | 879.4 | 883.2 | 887 | 891.8
323.15 K, 35000 kPa | 874.9 | 878.7 | 882.3 | 886.1 | 889.8 | 894.6
323.15 K, 40000 kPa | 877.6 | 881.5 | 885.1 | 888.7 | 892.6 | 897.3
323.15 K, 45000 kPa | 880.4 | 884.2 | 887.7 | 891.4 | 895.2 | 899.9
323.15 K, 50000 kPa | 882.9 | 886.7 | 890.3 | 894 | 897.7 | 902.4
323.15 K, 55000 kPa | 885.5 | 889.2 | 892.8 | 896.4 | 900.2 | 904.8
323.15 K, 60000 kPa | 888 | 891.8 | 895.3 | 899 | 902.7 | 907.3
323.15 K, 65000 kPa | 890.5 | 894.2 | 897.7 | 901.3 | 905 | 909.6
343.15 K, 100 kPa | 837.2 | 841.1 | 844.9 | 849 | 853.2 | 857.8
343.15 K, 5000 kPa | 841.2 | 845 | 848.8 | 852.7 | 857 | 861.5
343.15 K, 10000 kPa | 845 | 848.9 | 852.5 | 856.5 | 860.6 | 865.1
343.15 K, 15000 kPa | 848.8 | 852.5 | 856.2 | 860 | 864.2 | 868.6
343.15 K, 20000 kPa | 852.2 | 855.9 | 859.6 | 863.4 | 867.5 | 871.9
343.15 K, 25000 kPa | 855.6 | 859.3 | 862.9 | 866.7 | 870.7 | 875.1
343.15 K, 30000 kPa | 858.8 | 862.6 | 866.2 | 870 | 873.9 | 878.3
343.15 K, 35000 kPa | 862 | 865.6 | 869.2 | 873 | 876.9 | 881.2
343.15 K, 40000 kPa | 865 | 868.6 | 872.2 | 875.9 | 879.8 | 884.1
343.15 K, 45000 kPa | 867.9 | 871.6 | 875.1 | 878.8 | 882.6 | 887
343.15 K, 50000 kPa | 870.8 | 874.4 | 878 | 881.6 | 885.4 | 889.7
343.15 K, 55000 kPa | 873.6 | 877.1 | 880.6 | 884.3 | 888 | 892.3
343.15 K, 60000 kPa | 876.2 | 879.7 | 883.1 | 886.9 | 890.6 | 894.9
343.15 K, 65000 kPa | 878.9 | 882.4 | 885.8 | 889.5 | 893.2 | 897.4
